Test results published in patent US20250368666A1, “INDAZOLE COMPOUNDS” (TYRA BIOSCIENCES, INC., priority 2022, published 2025).

Columns and labels:
Assay in all cases: Kinase binding assay (kinase-tagged T7 phage, affinity beads, qPCR), Kd
FGFR1 = molecular target: T1, FGFR1 (Homo sapiens, UniProt P11362); conditions: read-out: FGFR1 (Kd nM)
T1 construct: made in house; host or cells: E. coli (BL21-derived), T7 phage
Experimental: (§1) Kinase-tagged T7 phage strains were prepared in an E. coli host derived from the BL21 strain. E. coli were grown to log-phase and infected with T7 phage and incubated with shaking at 32° C. until lysis. The lysates were centrifuged and filtered to remove cell debris. Streptavidin-coated magnetic beads were treated with biotinylated small molecule ligands for 30 minutes at room temperature to generate affinity resins for kinase assays. The liganded beads were blocked with excess biotin and washed with blocking buffer SeaBlock (Pierce), 1% BSA, 0.05% Tween 20, 1 mM DTT to remove unbound ligand and to reduce non-specific binding.
(§2) Test compounds were prepared as 111× stocks in 100% DMSO. Kds were determined using an 11-point 3-fold compound dilution series with three DMSO control points. […] The compounds were then diluted directly into the assays such that the final concentration of DMSO was 0.9%. All reactions performed in polypropylene 384-well plate. Each was a final volume of 0.02 ml. […] The kinase concentration in the eluates was measured by qPCR.
(§3) Binding constants were calculated with a standard dose-response curve using the Hill equation: […]
(§4) The Hill Slope was set to −1. Curves were fitted using a non-linear least square fit with the Levenberg-Marquardt algorithm.

FGFR2 = molecular target: T2, FGFR2 (Homo sapiens, UniProt P21802); conditions: read-out: FGFR2 (Kd nM)
T2 construct: made in house; host or cells: E. coli (BL21-derived), T7 phage
T2 sequence (P21802 22-821): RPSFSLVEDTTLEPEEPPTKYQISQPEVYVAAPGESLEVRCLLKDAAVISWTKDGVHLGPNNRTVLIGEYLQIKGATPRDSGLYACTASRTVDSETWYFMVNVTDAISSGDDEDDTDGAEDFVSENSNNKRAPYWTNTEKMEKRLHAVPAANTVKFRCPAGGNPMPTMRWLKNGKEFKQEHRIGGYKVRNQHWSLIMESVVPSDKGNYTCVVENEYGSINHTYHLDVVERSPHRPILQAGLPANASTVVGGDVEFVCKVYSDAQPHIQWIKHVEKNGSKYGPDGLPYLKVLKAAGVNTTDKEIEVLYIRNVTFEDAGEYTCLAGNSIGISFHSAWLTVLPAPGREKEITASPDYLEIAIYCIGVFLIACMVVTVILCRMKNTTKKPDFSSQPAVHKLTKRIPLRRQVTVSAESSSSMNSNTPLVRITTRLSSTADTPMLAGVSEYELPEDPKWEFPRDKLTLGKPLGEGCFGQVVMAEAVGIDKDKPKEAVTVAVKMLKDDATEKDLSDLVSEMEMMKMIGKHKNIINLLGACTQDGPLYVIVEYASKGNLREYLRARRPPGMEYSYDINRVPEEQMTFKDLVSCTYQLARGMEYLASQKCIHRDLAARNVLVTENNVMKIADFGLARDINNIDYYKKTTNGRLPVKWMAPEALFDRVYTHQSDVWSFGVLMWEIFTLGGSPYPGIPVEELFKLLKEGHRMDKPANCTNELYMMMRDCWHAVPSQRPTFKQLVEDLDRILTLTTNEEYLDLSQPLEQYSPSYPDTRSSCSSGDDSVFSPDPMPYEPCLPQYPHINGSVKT
Experimental: as §1, §2, §3, §4

FGFR3 = molecular target: T3, FGFR3 (Homo sapiens, UniProt P22607); conditions: read-out: FGFR3 (Kd nM)
T3 construct: made in house; host or cells: E. coli (BL21-derived), T7 phage
T3 sequence (P22607 23-806): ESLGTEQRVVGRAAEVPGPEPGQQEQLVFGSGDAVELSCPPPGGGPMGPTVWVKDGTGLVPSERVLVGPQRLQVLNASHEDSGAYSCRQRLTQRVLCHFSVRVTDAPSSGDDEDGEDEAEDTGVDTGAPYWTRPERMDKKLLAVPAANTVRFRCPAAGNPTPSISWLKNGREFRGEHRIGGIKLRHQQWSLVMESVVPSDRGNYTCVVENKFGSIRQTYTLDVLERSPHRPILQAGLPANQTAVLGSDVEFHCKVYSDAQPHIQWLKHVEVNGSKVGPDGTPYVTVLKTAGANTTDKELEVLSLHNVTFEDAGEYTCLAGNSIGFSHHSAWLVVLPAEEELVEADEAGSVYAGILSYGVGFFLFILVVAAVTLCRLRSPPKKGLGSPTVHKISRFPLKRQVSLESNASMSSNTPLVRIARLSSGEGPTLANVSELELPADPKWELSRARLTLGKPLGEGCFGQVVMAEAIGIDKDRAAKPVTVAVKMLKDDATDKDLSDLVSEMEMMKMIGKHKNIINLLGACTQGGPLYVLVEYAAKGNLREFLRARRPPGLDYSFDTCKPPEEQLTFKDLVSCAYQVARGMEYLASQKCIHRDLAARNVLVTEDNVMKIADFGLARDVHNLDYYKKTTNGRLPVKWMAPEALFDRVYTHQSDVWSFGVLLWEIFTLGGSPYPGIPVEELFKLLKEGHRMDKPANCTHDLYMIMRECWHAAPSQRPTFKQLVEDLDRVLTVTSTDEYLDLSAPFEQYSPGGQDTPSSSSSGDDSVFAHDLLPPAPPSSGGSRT
Experimental: as §1, §2, §3, §4

FGFR3 (V555M) = molecular target: T4, FGFR3 (V555M) (Homo sapiens, UniProt P22607, V555M); conditions: V555M mutant; read-out: FGFR3 (V555M) (Kd nM)
T4 construct: made in house; host or cells: E. coli (BL21-derived), T7 phage
T4 sequence (P22607 23-806 V555M): as the sequence (P22607 23-806) above, with V533M counted along it
Experimental: as §1, §2, §3, §4

FGFR4 = molecular target: T5, FGFR4 (Homo sapiens, UniProt P22455); conditions: read-out: FGFR4 (Kd nM)
T5 construct: made in house; host or cells: E. coli (BL21-derived), T7 phage
T5 sequence (P22455 22-802): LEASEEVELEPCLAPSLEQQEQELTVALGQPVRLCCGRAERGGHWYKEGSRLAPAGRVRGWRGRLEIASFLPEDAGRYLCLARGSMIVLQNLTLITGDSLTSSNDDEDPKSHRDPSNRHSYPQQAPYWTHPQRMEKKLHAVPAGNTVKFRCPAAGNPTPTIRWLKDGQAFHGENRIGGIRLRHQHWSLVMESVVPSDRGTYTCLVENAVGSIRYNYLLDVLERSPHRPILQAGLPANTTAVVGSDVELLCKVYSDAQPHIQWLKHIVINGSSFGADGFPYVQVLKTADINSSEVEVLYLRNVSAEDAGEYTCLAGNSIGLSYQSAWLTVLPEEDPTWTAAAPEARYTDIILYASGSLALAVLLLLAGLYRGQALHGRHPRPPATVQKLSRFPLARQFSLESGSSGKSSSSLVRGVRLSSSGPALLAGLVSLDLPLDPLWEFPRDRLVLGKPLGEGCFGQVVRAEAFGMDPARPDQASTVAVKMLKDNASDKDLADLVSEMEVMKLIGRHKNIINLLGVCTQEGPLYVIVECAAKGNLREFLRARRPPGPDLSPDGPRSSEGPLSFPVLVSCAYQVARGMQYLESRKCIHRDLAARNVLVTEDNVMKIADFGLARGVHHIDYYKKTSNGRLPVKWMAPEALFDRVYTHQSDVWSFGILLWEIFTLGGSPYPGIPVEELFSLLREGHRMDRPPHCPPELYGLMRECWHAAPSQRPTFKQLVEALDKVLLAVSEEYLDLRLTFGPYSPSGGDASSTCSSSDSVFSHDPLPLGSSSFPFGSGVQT
Experimental: as §1, §2, §3, §4

T1 sequence (P11362 22-822): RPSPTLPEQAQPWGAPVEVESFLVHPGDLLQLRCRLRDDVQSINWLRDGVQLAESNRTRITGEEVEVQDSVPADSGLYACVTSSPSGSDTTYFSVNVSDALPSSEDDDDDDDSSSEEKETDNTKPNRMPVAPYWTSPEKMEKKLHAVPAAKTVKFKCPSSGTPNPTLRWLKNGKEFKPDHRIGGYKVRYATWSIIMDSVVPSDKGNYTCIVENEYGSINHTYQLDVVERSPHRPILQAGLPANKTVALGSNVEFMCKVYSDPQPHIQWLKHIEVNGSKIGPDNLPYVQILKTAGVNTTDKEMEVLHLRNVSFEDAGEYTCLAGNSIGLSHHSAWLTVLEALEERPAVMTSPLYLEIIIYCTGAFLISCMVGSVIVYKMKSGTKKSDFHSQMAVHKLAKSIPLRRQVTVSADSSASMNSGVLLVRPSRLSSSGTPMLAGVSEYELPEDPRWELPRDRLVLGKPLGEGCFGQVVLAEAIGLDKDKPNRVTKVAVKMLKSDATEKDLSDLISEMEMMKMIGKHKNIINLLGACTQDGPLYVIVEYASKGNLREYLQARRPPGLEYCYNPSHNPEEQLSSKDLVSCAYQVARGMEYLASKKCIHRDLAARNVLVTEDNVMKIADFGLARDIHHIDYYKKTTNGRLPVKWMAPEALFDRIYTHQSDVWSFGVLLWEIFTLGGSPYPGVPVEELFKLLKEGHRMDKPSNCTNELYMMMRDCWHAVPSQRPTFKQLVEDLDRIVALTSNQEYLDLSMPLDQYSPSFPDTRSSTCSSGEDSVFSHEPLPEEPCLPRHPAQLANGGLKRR

SMILES	Kd (FGFR1) [nM]	Kd (FGFR2) [nM]	Kd (FGFR3) [nM]	Kd (FGFR3 (V555M)) [nM]	Kd (FGFR4) [nM]
C[C@@H](Oc1cc2c(-c3ccc(N4CC(C)(NC5CCC5)C4)nc3)n[nH]c2cc1F)c1c(Cl)cncc1Cl [Example 68, N-cyclobutyl-1-[5-[5-[(1R)-1-(3,5-dichloro-4-pyridyl)ethoxy]-6-fluoro-1H-indazol-3-yl]-2-pyridyl]-3-methyl-azetidin-3-amine]	1 to 50	1 to 50	1 to 50	1 to 50	1 to 50
C[C@@H](Oc1ccc2[nH]nc(-c3ccc(N4CC(C)(CNS(C)(=O)=O)C4)nc3)c2c1)c1c(Cl)cncc1Cl [Example 69, (R)-N-((1-(5-(5-(1-(3,5-dichloropyridin-4-yl)ethoxy)-1H-indazol-3-yl)pyridin-2-yl)-3-methylazetidin-3-yl)methyl)methane-sulfonamide]	1 to 50	1 to 50	1 to 50	1 to 50	1 to 50
COCCN(C)C1(C)CN(c2ncc(-c3n[nH]c4ccc(O[C@H](C)c5c(Cl)cncc5Cl)cc34)cn2)C1 [Example 79, (R)-1-(5-(5-(1-(3,5-dichloropyridin-4-yl)ethoxy)-1H-indazol-3-yl)pyrimidin-2-yl)-N-(2-methoxyethyl)-N,3-dimethylazetidin-3-amine]	1 to 50	1 to 50	1 to 50	1 to 50	1 to 50
COc1cc2[nH]nc(-c3cnc(N4CC(C)(CNC(C)C)C4)nc3)c2cc1O[C@H](C)c1c(Cl)cncc1Cl [Example 84, (R)-N-((1-(5-(5-(1-(3,5-dichloropyridin-4-yl)ethoxy)-6-methoxy-1H-indazol-3-yl)pyrimidin-2-yl)-3-methylazetidin-3-yl)methyl)propan-2-amine]	1 to 50	1 to 50	1 to 50	1 to 50	1 to 50
COCCN(C)C1(C)CN(c2ncc(-c3n[nH]c4ccc(O[C@H](C)c5c(Cl)cncc5Cl)cc34)cc2F)C1 [Example 85, (R)-1-(5-(5-(1-(3,5-dichloropyridin-4-yl)ethoxy)-1H-indazol-3-yl)-3-fluoropyridin-2-yl)-N-(2-methoxyethyl)-N,3-dimethylazetidin-3-amine]	1 to 50	1 to 50	1 to 50	1 to 50	1 to 50
COc1cc2[nH]nc(-c3cnc(N4CC(C)(NCCO)C4)nc3)c2cc1O[C@H](C)c1c(Cl)cncc1Cl [Example 86, (R)-2-((1-(5-(5-(1-(3,5-dichloropyridin-4-yl)ethoxy)-6-methoxy-1H-indazol-3-yl)pyrimidin-2-yl)-3-methylazetidin-3-yl)amino)ethan-1-ol]	1 to 50	1 to 50	1 to 50	1 to 50	1 to 50
C[C@@H](Oc1ccc2[nH]nc(-c3ccc(N4CC(C)(OCCO)C4)nc3)c2c1)c1c(Cl)cncc1Cl [Example 92, (R)-2-((1-(5-(5-(1-(3,5-dichloropyridin-4-yl)ethoxy)-1H-indazol-3-yl)pyridin-2-yl)-3-methylazetidin-3-yl)oxy)ethan-1-ol]	1 to 50	1 to 50	1 to 50	1 to 50	1 to 50
C[C@@H](Oc1ccc2[nH]nc(-c3ccc(N4CC(C)(N5CCOCC5)C4)nc3)c2c1)c1c(Cl)cncc1Cl [Example 94, 4-[1-[5-[5-[(1R)-1-(3,5-dichloro-4-pyridyl)ethoxy]-1H-indazol-3-yl]-2-pyridyl]-3-methyl-azetidin-3-yl]morpholine]	1 to 50	1 to 50	1 to 50	1 to 50	1 to 50
C[C@@H](O)CNC1(C)CN(c2ncc(-c3n[nH]c4ccc(O[C@H](C)c5c(Cl)cncc5Cl)cc34)cc2F)C1 [Example 104, (R)-1-((1-(5-(5-((R)-1-(3,5-dichloropyridin-4-yl)ethoxy)-1H-indazol-3-yl)-3-fluoropyridin-2-yl)-3-methylazetidin-3-yl)amino)propan-2-ol]	1 to 50	1 to 50	1 to 50	1 to 50	1 to 50
C[C@@H](Oc1ccc2[nH]nc(-c3cnc(N4CC(C)(N5CCCC5)C4)c(F)c3)c2c1)c1c(Cl)cncc1Cl [Example 107, (R)-5-(1-(3,5-dichloropyridin-4-yl)ethoxy)-3-(5-fluoro-6-(3-methyl-3-(pyrrolidin-1-yl)azetidin-1-yl)pyridin-3-yl)-1H-indazole]	1 to 50	1 to 50	1 to 50	1 to 50	1 to 50
C[C@@H](Oc1ccc2[nH]nc(-c3cnc(N4CC(C)(NCC5(O)CC5)C4)c(C#N)c3)c2c1)c1c(Cl)cncc1Cl [Example 120, (R)-5-(5-(1-(3,5-dichloropyridin-4-yl)ethoxy)-1H-indazol-3-yl)-2-(3-(((1-hydroxycyclopropyl)meth-yl)amino)-3-methylazetidin-1-yl)nicotinonitrile]	1 to 50	50 to 300	1 to 50	1 to 50	1 to 50
C[C@@H](Oc1ccc2[nH]nc(-c3cnc(N4CC(C)(CP(C)(C)=O)C4)c(F)c3)c2c1)c1c(Cl)cncc1Cl [Example 121, (R)-((1-(5-(5-(1-(3,5-dichloropyridin-4-yl)ethoxy)-1H-indazol-3-yl)-3-fluoropyridin-2-yl)-3-methylazetidin-3-yl)methyl)dimethylphos-phine oxide]	1 to 50	1 to 50	1 to 50	1 to 50	1 to 50
C[C@@H](Oc1ccc2[nH]nc(-c3ccc(N4CC(C)(NCC(F)F)C4)nc3)c2c1)c1c(Cl)cncc1Cl [Example 125, 1-[5-[5-[(1R)-1-(3,5-dichloro-4-pyridyl)ethoxy]-1H-indazol-3-yl]-2-pyridyl]-N-(2,2-difluoroethyl)-3-methyl-azetidin-3-amine]	1 to 50	1 to 50	1 to 50	1 to 50	1 to 50
C[C@@H](Oc1cc2c(-c3cnc(N4CC(C)(N(C)C)C4)c(F)c3)n[nH]c2cc1F)c1c(Cl)cncc1Cl [Example 130, 1-[5-[5-[(1R)-1-(3,5-dichloro-4-pyridyl)ethoxy]-6-fluoro-1H-indazol-3-yl]-3-fluoro-2-pyridyl]-N,N,3-trimethyl-azetidin-3-amine]	1 to 50	1 to 50	1 to 50	1 to 50	1 to 50
C[C@@H](Oc1ccc2[nH]nc(-c3ccc(N4CC(C)(N5CC(C)(O)C5)C4)nc3)c2c1)c1c(Cl)cncc1Cl [Example 157, 1-[1-[5-[5-[(1R)-1-(3,5-dichloro-4-pyridyl)ethoxy]-1H-indazol-3-yl]-2-pyridyl]-3-methyl-azetidin-3-yl]-3-methyl-azetidin-3-ol]	1 to 50	1 to 50	1 to 50	1 to 50	1 to 50
C[C@@H](Oc1ccc2[nH]nc(-c3cnc(N4CC(C)(C(=O)NCCO)C4)c(F)c3)c2c1)c1c(Cl)cncc1Cl [Example 162, 1-[5-[5-[(1R)-1-(3,5-dichloro-4-pyridyl)ethoxy]-1H-indazol-3-yl]-3-fluoro-2-pyridyl]-N-(2-hydroxyethyl)-3-methyl-azetidine-3-carboxamide]	1 to 50	1 to 50	1 to 50	1 to 50	1 to 50
C[C@@H](Oc1cc2c(-c3cnc(N4CC(C)(N5CCC5)C4)c(F)c3)n[nH]c2cc1F)c1c(Cl)cncc1Cl [Example 163, 3-[6-[3-(azetidin-1-yl)-3-methyl-azetidin-1-yl]-5-fluoro-3-pyridyl]-5-[(1R)-1-(3,5-dichloro-4-pyridyl)ethoxy]-6-fluoro-1H-indazole]	1 to 50	1 to 50	1 to 50	1 to 50	1 to 50
COc1cc2[nH]nc(-c3cnc(N4CC(C)(NCCO)C4)c(F)c3)c2cc1O[C@H](C)c1c(Cl)cncc1Cl [Example 164, (R)-2-((1-(5-(5-(1-(3,5-dichloro-pyridin-4-yl)ethoxy)-6-methoxy-1H-indazol-3-yl)-3-fluoropyridin-2-yl)-3-methylazetidin-3-yl)amino)ethan-1-ol]	1 to 50	1 to 50	1 to 50	1 to 50	1 to 50
C[C@@H](Oc1cc2c(-c3cnc(N4CC(C)(NCCO)C4)c(F)c3)n[nH]c2cc1F)c1c(Cl)cncc1Cl [Example 165]	1 to 50	1 to 50	1 to 50	1 to 50	1 to 50
C[C@@H](Oc1ccc2[nH]nc(-c3cnc(N4CC(C)(N5CCCC5)C4)c(F)c3)c2c1F)c1c(Cl)cncc1Cl [Example 168, (R)-5-(1-(3,5-dichloropyridin-4-yl)ethoxy)-4-fluoro-3-(5-fluoro-6-(3-methyl-3-(pyrrolidin-1-yl)azetidin-1-yl)pyridin-3-yl)-1H-indazole]	50 to 300	50 to 300	1 to 50	1 to 50	50 to 300
